The record followed here is patent US20230257354A1, “NOVEL HETEROCYCLIC COMPOUNDS” (Hoffmann-La Roche Inc., priority 2020, published 2023).

Counter-ions that a name gives are not always drawn.

The subject of this assay is Acinetobacter baumannii ATCC17978. Nature of the assay: Antimicrobial susceptibility testing, 90% growth inhibitory concentration (IC90) determination, ATCC17978. Conditions: Iso-Sensitest broth, OD 600 nm over 16 h, 35±2° C., read-out: ATCC 17978 IC90. It is filed as cell-based. As for the experimental part: Antimicrobial Susceptibility Testing: 90% Growth Inhibitory Concentration (IC90) Determination The in vitro antimicrobial activity of the compounds was determined according to the following procedure: The assay used a 10-points Iso-Sensitest broth medium to measure quantitatively the in vitro activity of the compounds against Acinetobacter baumannii ATCC17978 or ATCC17961. Stock compounds in DMSO were serially twofold diluted (e.g. range from 50 to 0.097 μM final concentration) in 384 wells microtiter plates and inoculated with 49 μl the bacterial suspension in Iso-Sensitest medium to have a final cell concentration of ˜5×10^(5) CFU/ml in a final volume/well of 50 ul/well. Microtiter plates were incubated at 35±2° C. Bacterial cell growth was determined with the measurement of optical density at X=600 nm each 20 minutes over a time course of 16 h. Growth inhibition was calculated during the logarithmic growth of the bacterial cells with determination of the concentration inhibiting 50% (IC50) and 90% (IC90) of the growth. Table 1 provides the 90% growth inhibitory concentrations (IC90) in micromoles per liter of the compounds of present invention obtained against the strain Acinetobacter baumannii ATCC17978.
In the case of `CCc1cc(NC(=O)c2ncc(-c3ccc(OCC#N)c(F)c3Cl)n2C)ccc1C(=O)NCCOCCN` [Example A22, N-[4-[2-(2-aminoethoxy)ethylcarbamoyl]-3-ethyl-phenyl]-5-[2-chloro-4-(cyanomethoxy)-3-fluoro-phenyl]-1-methyl-imidazole-2-carboxamide;hydrochloride], the IC90 is 180 nM.

Consider `COc1ccc(-c2cnc(C(=O)Nc3ccc(C(=O)N[C@H]4C[C@@H](NC(=O)C5C[C@@H](O)CN5)C4)c(Cl)c3)n2C)c(F)c1F` (stereo in doubt) [Example B38, N-[3-chloro-4-[[3-[[(4R)-4-hydroxypyrrolidine-2-carbonyl]amino]cyclobutyl]carbamoyl]phenyl]-5-(2,3-difluoro-4-methoxy-phenyl)-1-methyl-imidazole-2-carboxamide;formic acid], for which the IC90 was 55 nM. For the molecule `CCc1cc(NC(=O)c2ncc(-c3ccc(OC(C)C)c(F)c3)n2C)ccc1C(=O)NCCOCCN` [Example A15, N-[4-[2-(2-aminoethoxy)ethylcarbamoyl]-3-ethyl-phenyl]-5-(3-fluoro-4-isopropoxy-phenyl)-1-methyl-imidazole-2-carboxamide;hydrochloride], the IC90 stood at 4500 nM. The same measure for `Cn1c(-c2ccc(OCC#N)c(F)c2F)cnc1C(=O)Nc1ccc(C(=O)NCCNC(=O)C2CCNCC2)c(Cl)c1` [Example B15, N-[2-[[2-chloro-4-[[5-[4-(cyanomethoxy)-2,3-difluoro-phenyl]-1-methyl-imidazole-2-carbonyl]amino]benzoyl]amino]ethyl]piperidine-4-carboxamide;2,2,2-trifluoroacetic acid]: 360 nM. The same measure for `COc1ccc(-c2cnc(C(=O)Nc3ccc(C(=O)NC4CCN(C(=O)CCOCCN)CC4)c(Cl)c3)n2C)c(F)c1F` [Example B8, N-[4-[[1-[3-(2-aminoethoxy)propanoyl]-4-piperidyl]carbamoyl]-3-chloro-phenyl]-5-(2,3-difluoro-4-methoxy-phenyl)-1-methyl-imidazole-2-carboxamide;formic acid]: 140 nM. The same measure for `CCc1cc(NC(=O)c2ncc(-c3ccc(OC(F)F)c(F)c3F)n2C)ccc1C(=O)NCCCNC(=O)C1CCNCC1` [Example B12, N-[3-[[4-[[5-[4-(difluoromethoxy)-2,3-difluoro-phenyl]-1-methyl-imidazole-2-carbonyl]amino]-2-ethyl-benzoyl]amino]propyl]piperidine-4-carboxamide;formic acid]: 760 nM; for `COc1ccc(-c2cnc(C(=O)Nc3ccc(C(=O)N[C@H]4C[C@@H](NC(=O)[C@@H]5CCNC[C@@H]5O)C4)c(Cl)c3)n2C)c(F)c1F` [Example B41, (3R,4R)-N-[3-[[2-chloro-4-[[5-(2,3-difluoro-4-methoxy-phenyl)-1-methyl-imidazole-2-carbonyl]amino]benzoyl]amino]cyclobutyl]-3-hydroxy-piperidine-4-carboxamide;formic acid]: 130 nM; for `COc1ccc(-c2cnc(C(=O)Nc3ccc(C(=O)NCCN4CCC(O)C4)c(Cl)c3)n2C)c(F)c1F` (centres unmarked) [Example A28, N-[3-chloro-4-[2-(3-hydroxypyrrolidin-1-yl)ethylcarbamoyl]phenyl]-5-(2,3-difluoro-4-methoxy-phenyl)-1-methyl-imidazole-2-carboxamide]: 1200 nM. On to `CC[C@]1(O)CN[C@@H](C(=O)NCCNC(=O)c2ccc(NC(=O)c3ncc(-c4ccc(OC)c(F)c4F)n3C)cc2C)C1` [Example B27, 5-(2,3-difluoro-4-methoxy-phenyl)-N-[4-[2-[[(2R,4R)-4-ethyl-4-hydroxy-pyrrolidine-2-carbonyl]amino]ethylcarbamoyl]-3-methyl-phenyl]-1-methyl-imidazole-2-carboxamide;formic acid], for which the IC90 turned out to be 1100 nM.

For `COc1ccc(-c2cnc(C(=O)Nc3ccc(C(=O)NCCNC(=O)N[C@@H]4CNC[C@H]4O)c(C)c3)n2C)c(F)c1F` [Example B28, 5-(2,3-difluoro-4-methoxy-phenyl)-N-[4-[2-[[(3R,4R)-4-hydroxypyrrolidin-3-yl]carbamoylamino]ethylcarbamoyl]-3-methyl-phenyl]-1-methyl-imidazole-2-carboxamide;formic acid], the IC90 came out at 510 nM. The same measure for `COc1ccc(-c2cnc(C(=O)Nc3ccc(C(=O)NC4CCN(C(=O)CCOCCN)C4)c(Cl)c3)n2C)c(F)c1F` (centres unmarked) [Example B4, N-[4-[[1-[3-(2-aminoethoxy)propanoyl]pyrrolidin-3-yl]carbamoyl]-3-chloro-phenyl]-5-(2,3-difluoro-4-methoxy-phenyl)-1-methyl-imidazole-2-carboxamide;formic acid]: 200 nM; for `COc1ccc(-c2cnc(C(=O)Nc3ccc(C(=O)NCCOCCN)c(Cl)c3)n2C)c(F)c1F` [Example A1, N-[4-[2-(2-Aminoethoxy)ethylcarbamoyl]-3-chloro-phenyl]-5-(2,3-difluoro-4-methoxy-phenyl)-1-methyl-imidazole-2-carboxamide]: 240 nM. With `Cn1c(-c2ccc(OC(F)F)c(F)c2F)cnc1C(=O)Nc1ccc(C(=O)NCCC2CN(C(=O)CCN)C2)c(Cl)c1` [Example B10, N-[4-[2-[1-(3-aminopropanoyl)azetidin-3-yl]ethylcarbamoyl]-3-chloro-phenyl]-5-[4-(difluoromethoxy)-2,3-difluoro-phenyl]-1-methyl-imidazole-2-carboxamide;2,2,2-trifluoroacetic acid], the IC90 was 140 nM. With `Cc1cc(NC(=O)c2ncc(-c3ccc(OCC#N)c(F)c3F)n2C)ccc1C(=O)NCCNC(=O)C1(O)CCNCC1` [Example B14, N-[2-[[4-[[5-[4-(cyanomethoxy)-2,3-difluoro-phenyl]-1-methyl-imidazole-2-carbonyl]amino]-2-methyl-benzoyl]amino]ethyl]-4-hydroxy-piperidine-4-carboxamide;formic acid], the IC90 came out at 990 nM. Consider `COc1ccc(-c2cnc(C(=O)Nc3ccc(C(=O)N[C@H]4C[C@@H](NC(=O)C5CC(CN)C5)C4)c(Cl)c3)n2C)c(F)c1F` (some centres unmarked) [Example B9, N-[4-[[3-[[3-(aminomethyl)cyclobutanecarbonyl]amino]cyclobutyl]carbamoyl]-3-chloro-phenyl]-5-(2,3-difluoro-4-methoxy-phenyl)-1-methyl-imidazole-2-carboxamide;formic acid], for which the IC90 worked out at 210 nM. For the molecule `COc1ccc(-c2cnc(C(=O)Nc3ccc(C(=O)N[C@H]4C[C@@H](C(=O)NCCN)C4)c(Cl)c3)n2C)c(F)c1F` [Example B19, N-[4-[[3-(2-aminoethylcarbamoyl)cyclobutyl]carbamoyl]-3-chloro-phenyl]-5-(2,3-difluoro-4-methoxy-phenyl)-1-methyl-imidazole-2-carboxamide;formic acid], the IC90 amounted to 160 nM.

With `COc1ccc(-c2cnc(C(=O)Nc3ccc(C(=O)NC4CCN(C(=O)[C@@H]5CCNC5)C4)c(Cl)c3)n2C)c(F)c1F` (stereo partly drawn) [Example B2, N-[3-chloro-4-[[1-[(3R)-pyrrolidine-3-carbonyl]pyrrolidin-3-yl]carbamoyl]phenyl]-5-(2,3-difluoro-4-methoxy-phenyl)-1-methyl-imidazole-2-carboxamide;formic acid], the IC90 turned out to be 130 nM.

As usually defined, the IC90 is the point of the concentration-response curve where the effect stands at 90%.
